Test results from patent publication US20230096528A1, “Pharmaceutical Composition for Treatment or Prevention of Multiple Inflammatory disorders” (priority 2019, published 2023).

What was measured:
[1] = system: biomarkers (chemokines, CSFs, interleukins, IFNs); assay: Biomarkers compared across many studies (Table 2); assay type: in vivo; conditions: PO 92.4 mg/kg DA BID
Protocol: The many examples provided herein show the effect of the denatonium salts on various in vivo and in vitro models of various disease indications. In addition, blood samples were taken from the tested (and control) animals and various biomarkers were measured and compared. FIGS. 70A-C show graphs comparing biomarkers across many studies. […] It should be noted that clusters of multiple biomarkers predict effectiveness for each disease indication and that grouping is shown in FIG. 71.

[2] = system: leptin-deficient (ob/ob) mice; assay: Body weight and biomarker study in leptin-deficient (ob/ob) mice, 56 days (Example 10); assay type: in vivo; conditions: 50 mg/kg gavage BID
Protocol: Therefore, ob/ob mice are a predictive in vivo model for these indications. This example provides results of a study of DA plus another compound (CQL) on body weight in leptin-deficient (ob/ob) mice. Vehicle group (N=14) were treated with distilled water by gavage BID, and DA (N=14) at a dose of 50 mg/kg by gavage BID. The study period was for 56 days+2-3 days testing period afterward. Body weight change measured 3× per week, food intake was measure twice per week, metabolic biomarkers (blood glucose, blood insulin, blood HbA1c, HDL, LDL, triglyceride and bile acid) were measured at beginning and end of study. Cytokine analysis was measured at end on Day 56.

[3] = day 56, no significant difference

CC(=O)[O-].CC[N+](CC)(CC(=O)Nc1c(C)cccc1C)Cc1ccccc1 [DA, denatonium acetate]
Eotaxin: Decreased Percentage Compared to Vehicle [1]: −18.6%
G-CSF: Decreased Percentage Compared to Vehicle [1]: −37.5%
GM-CSF: Decreased Percentage Compared to Vehicle [1]: −2.3%
IFN-γ: Decreased Percentage Compared to Vehicle [1]: −37.3%
IL-1α: Decreased Percentage Compared to Vehicle [1]: −18.2%
IL-1β: Decreased Percentage Compared to Vehicle [1]: −12.0%
IL-3: Decreased Percentage Compared to Vehicle [1]: −74.5%
IL-5: Decreased Percentage Compared to Vehicle [1]: −29.1%
IL-6: Decreased Percentage Compared to Vehicle [1]: −34.2%
IL-10: Decreased Percentage Compared to Vehicle [1]: −92.5%
IL-12 (p70): Decreased Percentage Compared to Vehicle [1]: −28.0%
IL-17: Decreased Percentage Compared to Vehicle [1]: −21.2%
KC: Decreased Percentage Compared to Vehicle [1]: −21.6%
LIX: Decreased Percentage Compared to Vehicle [1]: −7.3%
MCP-1: Decreased Percentage Compared to Vehicle [1]: −24.2%
MIG: Decreased Percentage Compared to Vehicle [1]: −13.2%
MIP-1α: Decreased Percentage Compared to Vehicle [1]: −3.4%
MIP-1β: Decreased Percentage Compared to Vehicle [1]: −10.2%
MIP-2: Decreased Percentage Compared to Vehicle [1]: −76.3%
RANTES: Decreased Percentage Compared to Vehicle [1]: −20.6%
Body weight ([2]; 56 days): no significant effect
Daily food consumption ([2]; 56 days): no significant effect
Serum HBA1c levels ([2]; 56 days): no significant effect
Serum HDL levels ([2]; 56 days): no significant effects
Serum glucose levels ([2]; 56 days): significantly decreased
Serum insulin levels ([2]; 56 days): no significant effect
Serum LDL levels ([2]; 56 days, vs vehicle): significantly lowered
Serum bile acids levels ([2]; 56 days, vs vehicle): significantly increased
Serum triglyceride levels ([2]; 56 days, vs vehicle): significantly lowered
IL-1β level decreased by, compared to vehicle group [2, 3]: 19.1%
IL-6 level decreased by, compared to vehicle group [2, 3]: 61.4%
MCP-1 level decreased by, compared to vehicle group [2, 3]: 20.9%
RANTES level decreased by, compared to vehicle group [2, 3]: 1.7%
